Activity calls are given as the source filed them. No cut-off for these calls is given here.
How the values were obtained:
[1] = Antioxidant activity assessed as DPPH redical scavenging activity incubated for 2 hrs in dark condition; type: physicochemical
P388 = experiment: Cytotoxicity against mouse P388 cells at 0.78 to 100 uM after 4 days by MTT assay; type: functional, cell-based
Candida albicans = experiment: Antimicrobial activity against Candida albicans assessed as growth inhibition at 1.25 to 10 ug/disk incubated for 1 to 2 days by disk diffusion assay; type: functional, organism-based
Bacillus subtilis = experiment: Antimicrobial activity against Bacillus subtilis assessed as growth inhibition at 1.25 to 10 ug/disk incubated for 1 to 2 days by disk diffusion assay; type: functional, organism-based
Saccharomyces cerevisiae = experiment: Antimicrobial activity against Saccharomyces cerevisiae assessed as growth inhibition at 1.25 to 10 ug/disk incubated for 1 to 2 days by disk diffusion assay; type: functional, organism-based

IC50 [1]	SMILES	Activity (P388)	growth inhibition (GI) (Candida albicans)	growth inhibition (GI) (Bacillus subtilis)	growth inhibition (GI) (Saccharomyces cerevisiae)
37 µM	C/C=C1\NC(=O)C(C(C2=C(O)/C(=C/C)NC2=O)[C@H](O)CO)=C1O (stereo partly specified)	inactive	inactive	inactive	inactive
34 µM	C/C=C1\NC(=O)C(CC2=C(O)/C(=C/C)NC2=O)=C1O	inactive	inactive	inactive	inactive
13 µM	O=C1O[C@H]([C@@H](O)CO)C(O)=C1O [ASCORBIC ACID]	–	–	–	–

Reference: ChEMBL document CHEMBL3608252, “Dietziamides, novel tetramic acid dimers from Dietzia timorensis MZ-3 with antioxidative activity” (Bioorg Med Chem Lett, 2015)
